Biological target: IDH1 R132H (Homo sapiens (Human), UniProt O75874, R132H)
Test: Assays for IDH1 R132H Inhibitors (NADPH/aKG, resazurin detection)
Assay type: biochemical
Conditions: IDH1 R132H enzyme, Table 2; read-out: IDHR132H Activity
How it was run: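 Mutant enzyme in 150 mM NaCl, 10 mM MgCl2, 20 mM Tris pH 7.5, 0.03% BSA; compound in DMSO added to substrate mix of 8 uM NADPH and 2 mM aKG. Reaction ran 50 min at room temperature, then resazurin detection mix (30 μM) added for 5 min at room temperature.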

IDH1 R132H, sequence (O75874 whole entry R132H): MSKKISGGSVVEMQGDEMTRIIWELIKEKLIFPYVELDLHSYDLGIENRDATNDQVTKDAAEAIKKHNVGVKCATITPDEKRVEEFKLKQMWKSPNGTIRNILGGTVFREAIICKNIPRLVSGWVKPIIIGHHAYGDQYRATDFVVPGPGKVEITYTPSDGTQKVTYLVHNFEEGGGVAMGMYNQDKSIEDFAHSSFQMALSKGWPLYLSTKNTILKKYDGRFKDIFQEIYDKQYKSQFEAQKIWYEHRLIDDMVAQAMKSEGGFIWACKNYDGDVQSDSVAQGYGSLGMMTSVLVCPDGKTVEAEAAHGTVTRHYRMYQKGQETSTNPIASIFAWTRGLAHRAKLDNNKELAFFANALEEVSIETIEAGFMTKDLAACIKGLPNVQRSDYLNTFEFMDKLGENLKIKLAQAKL

SMILES	IC50 [µM]
CC(C)[C@@H]1CN(c2nc(C3CC3)c3c(c2C#N)CC(C)(C)OC3)CCN1C(=O)Cn1ccnn1 [Compound 408, (R)-6-(4-(2-(1H-1,2,3-triazol-1-yl)acetyl)-3-isopropylpiperazin-1-yl)-8-cyclopropyl-3,3-dimethyl-3,4-dihydro-1H-pyrano[3,4-c]pyridine-5-carbonitrile]	1 to 10
COC(=O)CC(=O)N1CCN(c2nc(C3CC3)c3c(c2C#N)CC(C)(C)OC3)C[C@H]1C(C)C [Compound 409, (R)-methyl 3-(4-(5-cyano-8-cyclopropyl-3,3-dimethyl-3,4-dihydro-1H-pyrano[3,4-c]pyridin-6-yl)-2-isopropylpiperazin-1-yl)-3-oxopropanoate]	< 0.5
CCOC(=O)[C@H]1CN(c2nc(C(C)C)c3c(c2C#N)CC(C)(C)OC3)CCN1C(=O)c1ccoc1 [Compound 410]	0.5 to 1
CCOC(=O)[C@@H]1CN(c2nc(C(C)C)c3c(c2C#N)CC(C)(C)OC3)CCN1C(=O)c1ccoc1 [Compound 411]	0.5 to 1
COC(=O)CCC(=O)N1CCN(c2nc(C3CC3)c3c(c2C#N)CC(C)(C)OC3)C[C@H]1C(C)C [Compound 412, (R)-methyl 4-(4-(5-cyano-8-cyclopropyl-3,3-dimethyl-3,4-dihydro-1H-pyrano[3,4-c]pyridin-6-yl)-2-isopropylpiperazin-1-yl)-4-oxobutanoate]	< 0.5
CCc1nc(N2CCN(C(=O)CCOC)[C@H](C(C)C)C2)c(C#N)c2c1COC(C)(C)C2 [Compound 413, (R)-8-ethyl-6-(3-isopropyl-4-(3-methoxypropanoyl)piperazin-1-yl)-3,3-dimethyl-3,4-dihydro-1H-pyrano[3,4-c]pyridine-5-carbonitrile]	< 0.5
CCc1nc(N2CCN(C(=O)c3ccoc3)[C@H](C(C)C)C2)c(C#N)c2c1COC(C)(C)C2 [Compound 414, (R)-8-ethyl-6-(4-(furan-3-carbonyl)-3-isopropylpiperazin-1-yl)-3,3-dimethyl-3,4-dihydro-1H-pyrano[3,4-c]pyridine-5-carbonitrile]	1 to 10
CC(C)[C@@H]1CN(c2nc(C3CC3)c3c(c2C#N)CC(C)(C)OC3)CCN1C(=O)Cn1cc(Br)cn1 [Compound 415, (R)-6-(4-(2-(4-bromo-1H-pyrazol-1-yl)acetyl)-3-isopropylpiperazin-1-yl)-8-cyclopropyl-3,3-dimethyl-3,4-dihydro-1H-pyrano[3,4-c]pyridine-5-carbonitrile]	0.5 to 1
CC(C)[C@@H]1CN(c2nc(C3CC3)c3c(c2C#N)CC(C)(C)OC3)CCN1C(=O)CCC(=O)O [Compound 416, (R)-4-(4-(5-cyano-8-cyclopropyl-3,3-dimethyl-3,4-dihydro-1H-pyrano[3,4-c]pyridin-6-yl)-2-isopropylpiperazin-1-yl)-4-oxobutanoic acid]	1 to 10
CC(C)[C@@H]1CN(c2nc(C3CC3)c3c(c2C#N)CC(C)(C)OC3)CCN1C(=O)COC1CCOC1 (stereo partly drawn) [Compound 417, 8-cyclopropyl-6-((3R)-3-isopropyl-4-(2-(tetrahydrofuran-3-yloxy)acetyl)piperazin-1-yl)-3,3-dimethyl-3,4-dihydro-1H-pyrano[3,4-c]pyridine-5-carbonitrile]	1 to 10
CC(C)[C@@H]1CN(c2nc(C3CC3)c3c(c2C#N)CC(C)(C)OC3)CCN1C(=O)CC(=O)O [Compound 418, (R)-3-(4-(5-cyano-8-cyclopropyl-3,3-dimethyl-3,4-dihydro-1H-pyrano[3,4-c]pyridin-6-yl)-2-isopropylpiperazin-1-yl)-3-oxopropanoic acid]	1 to 10
CC(=O)OCC(C)(C)C(=O)N1CCN(c2nc(C3CC3)c3c(c2C#N)CC(C)(C)OC3)C[C@H]1C(C)C [Compound 419, (R)-3-(4-(5-cyano-8-cyclopropyl-3,3-dimethyl-3,4-dihydro-1H-pyrano[3,4-c]pyridin-6-yl)-2-isopropylpiperazin-1-yl)-2,2-dimethyl-3-oxopropyl acetate]	1 to 10

From patent US9662327B2 (AGIOS PHARMACEUTICALS, INC, priority 2011, dated 2017)
